According to patent publication US20240226310A1, “Lipid Nanoparticle Therapeutics that Evade the Immune Response” (The Trustees of the University of Pennsylvania, priority 2021, published 2024):

Test system: pro-inflammatory cytokines
Experiment: Pro-inflammatory cytokines in systemic mouse model of inflammation (IV-LPS)
Assay type: in vivo, mice
[1] = removal of macrophages, LPS-treated mice which received LNP-mRNAs

With `O=P(O)(O)C(Cl)(Cl)P(=O)(O)O` [Clodronate] as the compound, how does the systemic pro-inflammatory cytokines/markers (IV treatment, LPS model of systemic inflammation) read?
The systemic pro-inflammatory cytokines/markers was “reduces systemic pro-inflammatory markers”.

What about the IL-6 in blood [1] of the same compound?
The IL-6 in blood was “significantly lowered”.

What about the “MIP-2 in liver homogenate” value [1] of the same compound?
The value was “significantly lowered”.
